# Laboratory results published in patent US12581252B2, “Substituted pyrrolo[3,4-b]pyridines as PI3K-α inhibitors” (Relay Therapeutics, Inc., priority 2020, dated 2026).
# pIC50: −log10 of the molar value.
# Biological target: H1047R PIK3CA enzyme (Homo sapiens, UniProt P42336, H1047R)
# Experiment: ADP-Glo Biochemical PIK3CA Kinase Assay
# H1047R PIK3CA enzyme, sequence (P42336 whole entry H1047R): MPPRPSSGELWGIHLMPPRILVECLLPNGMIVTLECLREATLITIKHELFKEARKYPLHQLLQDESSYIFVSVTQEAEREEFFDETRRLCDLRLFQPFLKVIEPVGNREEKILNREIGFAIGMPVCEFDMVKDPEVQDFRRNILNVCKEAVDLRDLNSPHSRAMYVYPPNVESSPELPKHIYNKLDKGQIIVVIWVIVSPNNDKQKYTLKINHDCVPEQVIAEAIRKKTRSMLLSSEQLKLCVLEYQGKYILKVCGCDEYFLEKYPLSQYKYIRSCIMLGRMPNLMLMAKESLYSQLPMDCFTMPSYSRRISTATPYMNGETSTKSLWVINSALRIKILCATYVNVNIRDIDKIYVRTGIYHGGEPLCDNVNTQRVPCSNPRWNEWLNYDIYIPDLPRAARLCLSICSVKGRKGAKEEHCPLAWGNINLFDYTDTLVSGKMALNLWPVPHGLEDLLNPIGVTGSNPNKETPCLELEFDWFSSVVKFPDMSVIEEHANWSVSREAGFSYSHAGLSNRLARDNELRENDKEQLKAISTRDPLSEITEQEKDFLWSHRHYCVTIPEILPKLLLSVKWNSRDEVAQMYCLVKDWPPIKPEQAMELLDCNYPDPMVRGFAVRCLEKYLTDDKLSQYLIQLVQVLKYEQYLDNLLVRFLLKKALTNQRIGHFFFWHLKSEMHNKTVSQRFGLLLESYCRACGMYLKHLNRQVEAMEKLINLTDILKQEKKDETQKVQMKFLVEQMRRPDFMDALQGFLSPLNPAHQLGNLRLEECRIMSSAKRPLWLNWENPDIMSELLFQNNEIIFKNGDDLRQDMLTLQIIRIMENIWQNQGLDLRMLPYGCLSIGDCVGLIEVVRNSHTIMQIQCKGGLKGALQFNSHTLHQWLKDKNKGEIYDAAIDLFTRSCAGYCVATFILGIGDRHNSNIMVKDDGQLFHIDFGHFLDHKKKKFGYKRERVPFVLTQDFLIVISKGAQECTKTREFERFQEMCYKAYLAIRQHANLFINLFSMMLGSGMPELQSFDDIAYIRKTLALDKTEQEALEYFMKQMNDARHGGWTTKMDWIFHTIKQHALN
# H1047R PIK3CA enzyme, sequence (P27986 whole entry partner): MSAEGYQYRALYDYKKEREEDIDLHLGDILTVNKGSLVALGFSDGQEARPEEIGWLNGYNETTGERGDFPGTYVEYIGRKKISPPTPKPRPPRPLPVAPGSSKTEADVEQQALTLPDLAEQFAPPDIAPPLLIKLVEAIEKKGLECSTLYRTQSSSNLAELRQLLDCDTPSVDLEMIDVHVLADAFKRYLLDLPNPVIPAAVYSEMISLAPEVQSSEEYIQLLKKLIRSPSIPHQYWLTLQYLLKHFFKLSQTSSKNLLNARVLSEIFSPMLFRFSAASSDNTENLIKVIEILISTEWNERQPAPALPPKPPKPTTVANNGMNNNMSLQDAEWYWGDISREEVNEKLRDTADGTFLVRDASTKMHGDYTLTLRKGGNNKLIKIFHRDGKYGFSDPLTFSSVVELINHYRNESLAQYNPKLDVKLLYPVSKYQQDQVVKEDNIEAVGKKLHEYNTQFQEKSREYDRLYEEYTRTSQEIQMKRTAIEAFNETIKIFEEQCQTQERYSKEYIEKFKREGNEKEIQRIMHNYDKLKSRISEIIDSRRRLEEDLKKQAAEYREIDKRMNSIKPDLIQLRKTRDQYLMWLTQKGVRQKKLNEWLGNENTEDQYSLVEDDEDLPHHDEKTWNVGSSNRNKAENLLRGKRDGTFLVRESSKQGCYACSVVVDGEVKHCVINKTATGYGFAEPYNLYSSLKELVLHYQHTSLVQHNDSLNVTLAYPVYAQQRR
row,Compound,pIC50
1,O=C1NC(c2cc(F)ccc2Cl)c2c(NC(=O)N3CCCC3)cc(-c3ccc4ncnn4c3)cc21 (stereo not shown) [Compound I-1720],4.00 to 5.00
2,"CC(C)(C)N[C@H]1NC(=O)c2cccc(NC(=O)c3cc(F)cc(C(F)(F)F)c3)c21 (single isomer, unassigned) [Compound I-2248]",4.00 to 5.00
3,Cc1ccccc1C1NC(=O)c2cccc(NC(=O)c3noc4ccccc34)c21 (stereo not shown) [Compound I-41],4.00 to 5.00
4,O=C(Nc1cccc2c1C(C1CCCC(O)C1)NC2=O)c1cc(F)cc(C(F)(F)F)c1 (mixture of isomers) [Compound I-2227],4.00 to 5.00
5,O=C1CCc2cc(F)cc(C(=O)Nc3cccc4c3C(c3cc(F)ccc3Cl)NC4=O)c2N1 (stereo not shown) [Compound I-1545],4.00 to 5.00
6,"CC(C)(O)c1cc(NC(=O)N2C[C@@H](O)c3ccccc32)c2c(c1)C(=O)N[C@@H]2c1cc(F)ccc1Cl (single isomer, unassigned) [Compound I-2122]",4.00 to 5.00
7,Cn1cc(-c2ccc(C3NC(=O)c4cccc(NC(=O)c5cc(F)cc(C(F)(F)F)c5)c43)c(Cl)c2)cn1 (stereo not shown) [Compound I-425],4.00 to 5.00
8,O=C(Nc1cccc2c1C(C1(O)CCCCC1)NC2=O)c1cc(F)cc(C(F)(F)F)c1 (stereo not shown) [Compound I-1967],4.00 to 5.00
9,"O=C1N[C@@H](c2cc(F)ccc2Cl)c2c(N[C@H]3CCOc4ccccc43)cc(-c3cnn(C(F)F)c3)nc21 (single isomer, unassigned) [Compound I-2160]",4.00 to 5.00
10,O=C1NCc2c(NC(=O)N3CCCCC3Cc3ccccc3)cccc21 (stereo not shown) [Compound I-990],4.00 to 5.00
11,O=C1NC(c2cc(F)ccc2Cl)c2c1cc(-c1ccc3ncnn3c1)cc2N(CC(=O)N1CCCCC1)C(=O)C(F)(F)F (stereo not shown) [Compound I-2001],4.00 to 5.00
12,Cc1ccccc1C1NC(=O)c2cccc(NC(=O)c3nsc4ccc(C#N)cc34)c21 (stereo not shown) [Compound I-377],5.00 to 6.00
13,O=C1N[C@@H](c2cc(F)ccc2Cl)c2c(NC(=O)N3CC[C@H]4CCCC[C@H]43)cccc21 [Compound I-2422],5.00 to 6.00
14,CC(=O)N1CCCCC1C1NC(=O)c2cccc(NC(=O)c3cc(F)cc(C(F)(F)F)c3)c21 (stereo not shown) [Compound I-1674],4.00 to 5.00
15,O=C(Nc1cccc2c1C(c1cc(F)ccc1Cl)NC2=O)c1cc(B(O)O)cc(C(F)(F)F)c1 (stereo not shown) [Compound I-450],5.00 to 6.00
16,CC(C)C1CCN(C(=O)Nc2cccc3c2C(c2cc(F)ccc2Cl)NC3=O)C1 (mixture of isomers) [Compound I-2419],4.00 to 5.00

row,Compound,pIC50
1,"N#CCc1ccc(NC(=O)N2C[C@@](O)(C(F)(F)F)c3cc(F)ccc32)c2c1C(=O)N[C@H]2c1cc(F)ccc1Cl (single isomer, unassigned) [Compound I-2616]",5.00 to 6.00
2,O=C(Nc1cc(Br)cc2c1C(c1cc(F)ccc1Cl)NC2=O)c1ccccc1Cl (stereo not shown) [Compound I-477],4.00 to 5.00
3,O=C(CC1(C(F)(F)F)CC1)Nc1cc(-c2ccc3ncnn3c2)cc2c1C(c1cc(F)ccc1Cl)NC2=O (stereo not shown) [Compound I-2044],5.00 to 6.00
4,O=C(Nc1cc(-c2cc(F)c3ncnn3c2)cc2c1[C@@H](c1cc(F)ccc1Cl)NC2=O)c1cc(F)cc(C(F)(F)F)c1 [Compound I-1703],4.00 to 5.00
5,"O=C(Nc1cc(NC2=NC[C@H](C(F)(F)F)O2)cc2c1[C@@H](c1cc(F)ccc1Cl)NC2=O)c1cc(F)cc(C(F)(F)F)c1 (single isomer, unassigned) [Compound I-2325]",5.00 to 6.00
6,O=C1NC(c2cc(F)ccc2Cl)c2c(NC(=O)N3CCC4(CC4)C3)cccc21 (stereo not shown) [Compound I-2468],4.00 to 5.00
7,CC(C)(O)c1cc(NC(=O)c2cc(F)cc(Cl)c2)c2c(c1)C(=O)N[C@@H]2c1cc(F)ccc1Cl [Compound I-299],4.00 to 5.00
8,O=C(Nc1cc(-c2ccc3ncnn3c2)cc2c1[C@@H](c1cc(F)ccc1Cl)NC2=O)c1cc(F)cc2c1NC(=O)C2(F)F [Compound I-1583],5.00 to 6.00
9,O=C1NC(c2cc(F)ccc2Cl)c2c(NC(=O)C3CCCCC3)cc(-c3ccc4ncnn4c3)cc21 (stereo not shown) [Compound I-1549],5.00 to 6.00
10,CC1(n2[nH]c(=O)c3cccc(NC(=O)c4cc(F)cc(C(F)(F)F)c4)c32)CCCCC1 [Compound I-857],5.00 to 6.00
11,O=C1NC(c2cc(F)ccc2Cl)c2c(NC(=O)N3CC(CO)C(C(F)(F)F)C3)cccc21 (stereo not shown) [Compound I-2181],4.00 to 5.00
12,Cc1ccccc1C1NCCc2c(Br)ccc(NC(=O)c3cc(F)cc(C(F)(F)F)c3)c21 (stereo not shown) [Compound I-1963],4.00 to 5.00
13,O=C1N[C@H](c2cc(F)ccc2Cl)c2c(NC(=O)[C@@H]3CCC[C@H](C(F)(F)F)C3)cc(-c3ccc4ncnn4c3)cc21 [Compound I-2031],5.00 to 6.00
14,CSc1cc(-c2ccc3ncnn3c2)cc2c1C(c1cc(F)ccc1Cl)NC2=O (stereo not shown) [Compound I-1892],4.00 to 5.00
15,C[C@H](CCC(F)(F)F)C(=O)Nc1cccc2c1[C@H](c1cc(F)ccc1Cl)NC2=O [Compound I-2139],4.00 to 5.00
16,Cc1ccccc1C1NC(=O)c2c(P(C)(C)=O)ccc(NC(=O)c3cc(F)cc(C(F)(F)F)c3)c21 (stereo not shown) [Compound I-365],5.00 to 6.00

# Other lines, results leading:
row,pIC50,Compound
1,6.00 to 6.30,"O=C(Nc1cc(-c2ccc3ncnn3c2)cc2c1[C@@H](c1cc(F)ccc1Cl)NC2=O)c1cc(F)cc(C(F)(F)F)c1 (single isomer, unassigned) [Compound I-943]"
2,≥ 7.00,O=C(Nc1cc(-c2ccc3ncnn3c2)nc2c1[C@H](c1cc(F)ccc1Cl)NC2=O)c1cc(F)cc(C(F)(F)F)c1 [Compound I-1229]
3,≥ 7.00,NC(=O)Cc1cc(NC(=O)c2cc(F)cc(C(F)(F)F)c2)c2c(c1)C(=O)NC2c1cc(F)ccc1Cl (stereo not shown) [Compound I-578]
4,5.00 to 6.00,O=C1NC(c2cc(F)ccc2Cl)c2c1cc(-c1ccc3ncnn3c1)cc2S(=O)(=O)Cc1ccccc1 (stereo not shown) [Compound I-1742]
5,5.00 to 6.00,O=C(Nc1cc(-c2ccn3nc(Cl)nc3c2)cc2c1[C@@H](c1cc(F)ccc1Cl)NC2=O)c1cc(F)cc(C(F)(F)F)c1 [Compound I-1695]
6,5.00 to 6.00,C[C@@H](CCC(F)(F)F)C(=O)Nc1cccc2c1[C@H](c1cc(F)ccc1Cl)NC2=O [Compound I-2138]
7,≥ 7.00,N#C[C@H]1C[C@@H](Oc2cc(NC(=O)c3cc(F)cc(C(F)(F)F)c3)c3c(c2)C(=O)N[C@H]3c2cc(F)ccc2Cl)C1 [Compound I-1334]
8,6.00 to 6.30,CC(C)n1cc(-c2cc(NC(=O)c3cc(F)cc(C(F)(F)F)c3)c3c(n2)C(=O)N[C@@H]3c2cc(F)ccc2Cl)ccc1=O [Compound I-650]
9,5.00 to 6.00,"Cc1ccccc1C1NC(=O)c2cccc(NC(=O)C34CCC(C3)c3ccccc34)c21 (stereo not shown) [Compound I-226, N-(1-Oxo-3-(o-tolyl)isoindolin-4-yl)-1,2,3,4-tetrahydro-1,4-methanonaphthalene-1-carboxamide]"
10,6.30 to 7.00,Cc1c(F)cccc1C1NC(=O)c2cccc(NC(=O)c3nsc4ccccc34)c21 (stereo not shown) [Compound I-106]
11,≥ 7.00,[2H]c1nc2ccc(-c3cc(NC(=O)c4cc(F)cc(C(F)(F)F)c4)c4c(c3)C(=O)NC4c3cc(F)ccc3Cl)cn2n1 (stereo not shown) [Compound I-1589]
12,6.00 to 6.30,O=C(Nc1cc(Br)cc2c1C(c1cc(F)ccc1Cl)NC2=O)c1cc(F)cc(Cl)c1F (stereo not shown) [Compound I-836]
13,≥ 7.00,O=C1NC(c2cc(F)ccc2Cl)c2c(NC(=O)C34CC5CC(CC(Cl)(C5)C3)C4)cc(Br)cc21 (stereo not shown) [Compound I-1179]
14,6.00 to 6.30,CC1(Nc2cc(NC(=O)c3cc(F)cc(C(F)(F)F)c3)c3c(c2)C(=O)N[C@@H]3c2cc(F)ccc2Cl)COC1 [Compound I-829]
15,≥ 7.00,CN(C)S(=O)(=O)Cc1cc(NC(=O)c2cc(F)cc(C(F)(F)F)c2)c2c(c1)C(=O)N[C@H]2c1cc(F)ccc1Cl [Compound I-1489]
16,6.30 to 7.00,O=C(Nc1cc(-c2cnn3ncnc3c2)cc2c1[C@@H](c1cc(F)ccc1Cl)NC2=O)c1cc(F)cc(C(F)(F)F)c1 [Compound I-1871]

row,pIC50,Compound
1,6.00 to 6.30,Cn1ccc(Nc2cc(NC(=O)c3cc(F)cc(C(F)(F)F)c3)c3c(c2)C(=O)N[C@@H]3c2cc(F)ccc2Cl)n1 [Compound I-1072]
2,≥ 7.00,O=C(Nc1cc(OC2CCCOC2)cc2c1C(c1cc(F)ccc1Cl)NC2=O)c1cc(F)cc(C(F)(F)F)c1 (racemic) [Compound I-1239]
3,≥ 7.00,N#CC1(COc2cc(NC(=O)c3cc(F)cc(C(F)(F)F)c3)c3c(c2)C(=O)NC3c2cc(F)ccc2Cl)CC1 (stereo not shown) [Compound I-1113]
4,6.30 to 7.00,Cc1ccccc1C1NC(=O)c2c(C(=O)N3CC(S(C)(=O)=O)C3)ccc(NC(=O)c3nsc4ccccc34)c21 (stereo not shown) [Compound I-225]
5,≥ 7.00,O=C(Nc1cc(Br)cc2c1C(c1cc(F)ccc1F)NC2=O)c1cc(F)cc(C(F)(F)F)c1 (stereo not shown) [Compound I-675]
6,6.30 to 7.00,COc1ncc(-c2cc(NC(=O)c3cc(F)cc(C(F)(F)F)c3)c3c(c2)C(=O)NC3c2cc(F)ccc2Cl)c(N)n1 (stereo not shown) [Compound I-1151]
7,≥ 7.00,N#Cc1cc2nccn2cc1-c1cc(NC(=O)c2cc(F)cc(C(F)(F)F)c2)c2c(c1)C(=O)NC2c1cc(F)ccc1Cl (stereo not shown) [Compound I-1437]
8,6.00 to 6.30,O=C(Nc1cc(-c2ccc3ncnn3c2)nc2c1C(C1CCCCC1)NC2=O)c1cc(F)cc(C(F)(F)F)c1 (stereo not shown) [Compound I-1607]
9,≥ 7.00,N#Cc1cccc(S(=O)(=O)Cc2cc(NC(=O)c3cc(F)cc(C(F)(F)F)c3)c3c(c2)C(=O)N[C@H]3c2cc(F)ccc2Cl)c1 [Compound I-1594]
10,≥ 7.00,O=C(Nc1cc(CN2CCn3ncnc3C2)cc2c1C(c1cc(F)ccc1Cl)NC2=O)c1cc(F)cc(C(F)(F)F)c1 (stereo not shown) [Compound I-1400]
11,6.30 to 7.00,Cc1c(F)cccc1[C@@H]1NC(=O)c2cc(Br)cc(NC(=O)c3cc(F)cc(C(F)(F)F)c3)c21 [Compound I-750]
12,6.30 to 7.00,O=C(Nc1cc(C2COCCO2)cc2c1C(c1cc(F)ccc1Cl)NC2=O)c1cc(F)cc(C(F)(F)F)c1 (stereo not shown) [Compound I-1361]
13,6.30 to 7.00,O=C(Nc1cccc2c1C(c1cc(Cl)cc(F)c1F)NC2=O)c1cc(F)cc(C(F)(F)F)c1 (stereo not shown) [Compound I-401]
14,≥ 7.00,CC(C)(O)c1cc(NC(=O)c2nsc3ccccc23)c2c(c1)C(=O)NC2c1cc(F)ccc1Cl (stereo not shown) [Compound I-136]
15,6.30 to 7.00,O=C(Nc1cc(-c2ccn3ccnc3c2)cc2c1[C@@H](c1cc(F)ccc1Cl)NC2=O)c1cc(F)cc(C(F)(F)F)c1 [Compound I-1451]
16,≥ 7.00,CNC(=O)n1cc(-c2cc(NC(=O)c3cc(F)cc(C(F)(F)F)c3)c3c(c2)C(=O)NC3c2cc(F)ccc2Cl)cn1 (stereo not shown) [Compound I-1505]
